Measurements from patent publication US20230248647A1, “SILICA HYDROGEL COMPOSITE AND ITS USE” (DelSiTech Oy, priority 2020, published 2023).
Where a name gives a salt, the structure may show the parent alone.

Tests used:
Solubility in water = format: physicochemical; conditions: corresponds to 0.019 mg/ml
[1] = Particle size distribution analysis by laser diffraction (Sympatec HELOS H3973); format: physicochemical; conditions: micronized particles
Description: For particle size distribution analysis, the non-active silica particles (which were used in silica hydrogel composite #29HG) were dispersed in ethanol, and the analysis was conducted using a Sympatec HELOS H3973 laser diffraction instrument. The particle size distribution for non-active silica particles is shown in Table 2 (D10, D50 and D90 means that 10%, 50%, and 90% of the particles are equal or smaller than the indicated size)
The particles size distribution analysis for micronized (described in Example 1) Anagrelide HCl particles was also conducted using a Sympatec HELOS H3973 laser diffraction instrument. The particle size was mainly between 1 and 200 micrometers, where D10 was 16.6 micrometers, D50 80.4 micrometers, and D90 155 micrometers.

[2] = In vivo pharmacokinetic experiment, oral and subcutaneous administration; set-up: species or system male SD (Sprague Dawley) rats; conditions: for AUC(0-t) / Cmax / Tmax / half-life: male, Sprague-Dawley, rat, plasma
Description: Silica hydrogel composite #29HG was used as a depot for male SD (Sprague Dawley) rats (5 animals/dosing group) in subcutaneous (SC+a letter A-E referring to different groups) administration of Anagrelide, and for oral administration (PO). The oral dose was prepared by adding 18.00 mg of Anagrelide hydrochloride into […] of 10 w-% ethanol with vortexing and sonication to obtain a suspension with concentration of 0.5 mg/ml of Anagrelide hydrochloride. The oral dose (5 mg/kg) was provided only in 12 h study, and it was freshly made just prior to dosing. Both 12 hour and 10 d pharmacokinetic experiments were conducted for the silica hydrogel composite for 2 different anagrelide hydrochloride doses (17.5 mg/kg and 35 mg/kg), and 28 d experiment only for the dose of 35 mg/kg.
The bioanalysis was conducted by using LC-MS/MS. The desired serial concentrations of working solutions were achieved by diluting stock solution of analyte with 50% acetonitrile in water solution. 5 μL of working solutions (2, 5, 10, 20, 50, 100, 500, 1000, 5000, 10000 ng/mL) were added to 50 μL of the male blank SD Rat plasma to achieve calibration standards of 0.2-1000 ng/mL (0.2, 0.5, 1, 2, 5, 10, 50, 100, 500, 1000 ng/mL) in a total volume of 55 μL. Four quality control samples at 0.5 ng/mL, 1 ng/mL, 50 ng/mL and 800 ng/mL for plasma were prepared independently of those used for the calibration curves. These QC samples were prepared on the day of analysis in the same way as calibration standards. 55 μL of standards, 55 μL of QC samples and 55 μL of unknown samples (50 μL of plasma with 5 μL of blank solution) were added to 200 μL of acetonitrile containing IS mixture for precipitating protein respectively. Then the samples were vortexed for 30 s. After centrifugation at 4 degree Celsius, 4700 rpm for 15 min, the supernatant was diluted 3 times with water, and 10 μL of diluted supernatant was injected into the LC-MS/MS system for quantitative analysis. The mean plasma concentrations of Anagrelide Hydrochloride for 12 h experiment are shown in FIG. 4, and corresponding results for 10 d experiment in FIG. 5, and for 28 d experiment in FIG. 6.

[3] = cited from earlier work
[4] = po, 5 mg/kg, oral suspension 5 mg/kg, 12 h experiment
[5] = sc, 17.5 mg/kg, SCA, subcutaneous silica hydrogel composite #29HG depot 17.5 mg/kg, 12 h experiment
[6] = sc, 17.5 mg/kg, SCB, subcutaneous silica hydrogel composite #29HG depot 17.5 mg/kg, 10 d experiment
[7] = sc, 35 mg/kg, SCC, subcutaneous silica hydrogel composite #29HG depot 35 mg/kg, 12 h experiment
[8] = sc, 35 mg/kg, SCD, subcutaneous silica hydrogel composite #29HG depot 35 mg/kg, 10 d experiment
[9] = sc, 35 mg/kg, SCE, subcutaneous silica hydrogel composite #29HG depot 35 mg/kg, 28 d experiment

With `O=C1CN2Cc3c(ccc(Cl)c3Cl)N=C2N1` [Anagrelide HCl, Anagrelide hydrochloride] the “solubility in water as weight-%” value (Solubility in water) was 0.0019 weight-%, the D10 [1] was 16.6 micrometers and the D50 [1] was 80.4 micrometers. For the same compound, the D90 [1] was 155 micrometers, the AUClast/D ([2]; PO, oral suspension 5 mg/kg, 12 h experiment) was 64 ± 47 ng·h/mL per mg/kg and the AUClast/D ([2]; SCA, subcutaneous silica hydrogel composite #29HG depot 17.5 mg/kg, 12 h experiment) was 1.67 ± 0.4 ng·h/mL per mg/kg. For the same compound, the AUClast/D ([2]; SCB, subcutaneous silica hydrogel composite #29HG depot 17.5 mg/kg, 10 d experiment) was 29.8 ± 12.5 ng·h/mL per mg/kg, the AUClast/D ([2]; SCC, subcutaneous silica hydrogel composite #29HG depot 35 mg/kg, 12 h experiment) was 0.99 ± 0.3 ng·h/mL per mg/kg and the AUClast/D ([2]; SCD, subcutaneous silica hydrogel composite #29HG depot 35 mg/kg, 10 d experiment) was 21.4 ± 9.1 ng·h/mL per mg/kg. For the same compound, the clinical symptoms ([2]; SD rats, entire experiment (PO 5 mg/kg; SC #29HG depot 17.5 and 35 mg/kg)) was “No abnormal clinical symptoms were observed”, the “release behaviour from plasma concentration results” value ([2]; delivered as solid particles in silica hydrogel composite, SC, SD rats) was “sustained and controlled release is achieved” and the AUC(0-t) [2, 4] was 320 ± 235 ng·h/mL. For the same compound, the Cmax [2, 4] was 62 ± 47 ng/mL, the Tmax [2, 4] was 3 ± 2 h and the half-life [2, 4] was 1.3 ± 0.27 h. For the same compound, the AUC(0-t) [2, 5] was 29.2 ± 7.1 ng·h/mL, the Cmax [2, 5] was 4.55 ± 1.41 ng/mL and the Tmax [2, 5] was 1.1 ± 0.55 h. For the same compound, the half-life [2, 5] was 4.92 ± 0.85 h, the AUC(0-t) [2, 6] was 521 ± 218 ng·h/mL and the Cmax [2, 6] was 3.58 ± 1.51 ng/mL. It also gave a Tmax [2, 6] of 96 ± 102 h, an AUC(0-t) [2, 7] of 34.5 ± 10.6 ng·h/mL and a Cmax [2, 7] of 6.3 ± 4.2 ng/mL. For the same compound, the Tmax [2, 7] was 0.8 ± 0.27 h, the half-life [2, 7] was 7.03 ± 1.04 h and the AUC(0-t) [2, 8] was 749 ± 320 ng·h/mL. For the same compound, the Cmax [2, 8] was 5.29 ± 2.28 ng/mL, the Tmax [2, 8] was 154 ± 79 h and the AUC(0-t) [2, 9] was 1600 ng·h/mL. For the same compound, the Tmax [2, 9] was 188 h, the half-life [2, 9] was 167 h and the solubility in water [3] was 19 µg/mL.

In the case of `O=C1CN2Cc3c(ccc(Cl)c3Cl)N=C2N1` [Anagrelide], the “solubility of base form compared with Anagrelide HCl” value ([3]; water) is given as “even lower solubility than Anagrelide HCl”.
